According to PubChem BioAssay (NCI):
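How tested: cells in 96-well plates exposed to compound for 48 hours at five concentrations. GI50: concentration for 50% inhibition of growth. TGI: total growth inhibition.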

Legend:
Experiment in all cases: NCI tumour cell line growth inhibition, 48 h
[1] = test system: SK-OV-3 ovarian
[2] = test system: SW-620 colon
[3] = test system: UACC-257 melanoma
[4] = test system: 786-0 renal
[5] = test system: SN12C renal
[6] = test system: T-47D breast
[7] = test system: MDA-MB-231 breast
[8] = test system: SNB-75 CNS
[9] = test system: U251 CNS
[10] = test system: OVCAR-5 ovarian
[11] = test system: HCT-116 colon
[12] = test system: MALME-3M melanoma
[13] = test system: OVCAR-8 ovarian
[14] = test system: HCT-15 colon
[15] = test system: IGROV1 ovarian
[16] = test system: K-562 leukemia
[17] = test system: NCI-H522 lung
[18] = test system: COLO 205 colon
[19] = test system: DU-145 prostate
[20] = test system: OVCAR-4 ovarian
[21] = test system: RXF 393 renal
[22] = test system: OVCAR-3 ovarian
[23] = test system: SF-295 CNS
[24] = test system: SR leukemia
[25] = test system: LOX IMVI melanoma
[26] = test system: KM12 colon
[27] = test system: HCC-2998 colon
[28] = test system: MDA-MB-435
[29] = test system: A549 NSCLC

## O=C(NNc1nc2cc(F)ccc2n2c(CN3CC4(COC4)C3)ccc12)c1cnccn1
[1]
  GI50: 548 nM
  TGI: 9880 nM
[2]
  GI50: 620 nM
  TGI: > 56300 nM
[3]
  GI50: 1720 nM
  TGI: 8070 nM
[4]
  GI50: 458 nM
  TGI: 11200 nM
[5]
  GI50: 952 nM
  TGI: 33500 nM
[6]
  GI50: 558 nM
  TGI: 22300 nM
[7]
  GI50: 696 nM
  TGI: 19500 nM
[8]
  GI50: 756 nM
  TGI: 11000 nM
[9]
  GI50: 395 nM
  TGI: > 53100 nM
[10]
  GI50: 1160 nM
  TGI: 34300 nM
[11]
  GI50: 373 nM
  TGI: 13300 nM
[12]
  GI50: 1600 nM
  TGI: 11900 nM
[13]
  GI50: 404 nM
  TGI: 16300 nM
[14]
  GI50: 188 nM
  TGI: 26300 nM
[15]
  GI50: 717 nM
  TGI: 18900 nM
[16]
  GI50: 502 nM
  TGI: > 100000 nM
[17]
  GI50: 497 nM
  TGI: 5500 nM
[18]
  GI50: 401 nM
  TGI: 16300 nM
[19]
  GI50: 1180 nM
  TGI: > 82400 nM
[20]
  GI50: 490 nM
  TGI: > 39100 nM
[21]
  GI50: 2290 nM
  TGI: 13700 nM
[22]
  GI50: 650 nM
  TGI: 22700 nM
[23]
  GI50: 319 nM
  TGI: 12200 nM
[24]
  GI50: 409 nM
  TGI: > 100000 nM
[25]
  GI50: 557 nM
  TGI: 9720 nM
[26]
  GI50: 579 nM
  TGI: > 64200 nM
[27]
  GI50: 709 nM
  TGI: > 45900 nM
[28]
  GI50: 1300 nM
  TGI: > 47500 nM
[29]
  GI50: 611 nM
  TGI: 32700 nM
